Results as given in patent US5928896A, “Polypeptides that include conformation-constraining groups which flank a protein--protein interaction site” (Virginia Commonwealth University, priority 1997, dated 1999).
Where a SMILES comes first, the peptide text is derived from it.

How the values were obtained:
[1] = test system: receptors of sweet tasting papillae; settings: comparison; cited from earlier work
[2] = Preliminary studies of hypotensive peptide versus diltiazem (diastolic pressure, arrhythmia); assay type: in vivo, rat
Experimental: Dose: 60 to 120 μg per rat (5 to 10 μM).

SMILES	Sweetness relative to sugar [1] [times sweeter than sugar]	Effect on diastolic pressure [2]
COC(=O)[C@H](Cc1ccccc1)NC(=O)[C@@H](N)CC(=O)O [aspartame] (H-Asp-Phe-OMe)	160	–
COc1ccc([C@@H]2Sc3ccccc3N(CCN(C)C)C(=O)[C@@H]2OC(C)=O)cc1 [diltiazem]	–	small increase in the diastolic pressure
